Experiment: xn = mol fraction of the nth substance listed
Conditions: Gas, Buoyancy - hydrostatic balance with magnetic suspension - one sinker

FCC(F)(F)F [1,1,1,2-tetrafluoroethane] + CCC
Conditions | mass density [kg/m3]
278.16 K, 230.77 kPa, x1 = 0.7989 | 9.5443
278.19 K, 442.42 kPa, x1 = 0.2391 | 12.1807
278.2 K, 102.16 kPa, x1 = 0.2391 | 2.6113
278.2 K, 233.61 kPa, x1 = 0.2391 | 6.1346
278.2 K, 514.55 kPa, x1 = 0.2391 | 14.4261
278.21 K, 366.56 kPa, x1 = 0.2391 | 9.9124
283.13 K, 211.19 kPa, x1 = 0.7822 | 8.4187
283.13 K, 329.43 kPa, x1 = 0.7822 | 13.5211
283.13 K, 459.52 kPa, x1 = 0.7822 | 19.5449
283.14 K, 311.18 kPa, x1 = 0.5401 | 10.6211
283.14 K, 501.49 kPa, x1 = 0.5401 | 17.8976
283.15 K, 101.13 kPa, x1 = 0.5401 | 3.3055
283.15 K, 102.6 kPa, x1 = 0.7822 | 3.9912
283.15 K, 120.94 kPa, x1 = 0.6201 | 4.2161
283.15 K, 198.01 kPa, x1 = 0.6201 | 7.0141
283.15 K, 210.93 kPa, x1 = 0.5401 | 7.0468
283.15 K, 416.97 kPa, x1 = 0.5401 | 14.5789
283.15 K, 602.24 kPa, x1 = 0.5401 | 22.0672
283.16 K, 415.7 kPa, x1 = 0.6201 | 15.476
283.16 K, 514.53 kPa, x1 = 0.6201 | 19.6465
283.17 K, 114.18 kPa, x1 = 0.2391 | 2.8713
283.17 K, 457.55 kPa, x1 = 0.2391 | 12.3388
283.17 K, 636.31 kPa, x1 = 0.2391 | 17.9209
283.18 K, 185.02 kPa, x1 = 0.2391 | 4.7134
283.18 K, 298.86 kPa, x1 = 0.2391 | 7.7872
283.18 K, 383.01 kPa, x1 = 0.2391 | 10.158
288.1 K, 100.89 kPa, x1 = 0.7822 | 3.85
288.12 K, 214.43 kPa, x1 = 0.7822 | 8.3795
288.12 K, 325.43 kPa, x1 = 0.7822 | 13.0428
288.12 K, 552.55 kPa, x1 = 0.7822 | 23.4956
288.12 K, 552.56 kPa, x1 = 0.7822 | 23.4963
288.12 K, 709.34 kPa, x1 = 0.5401 | 26.0161
288.13 K, 102.08 kPa, x1 = 0.5401 | 3.2763
288.13 K, 317.7 kPa, x1 = 0.5401 | 10.6307
288.13 K, 424.11 kPa, x1 = 0.5401 | 14.5146
288.13 K, 446.77 kPa, x1 = 0.6201 | 16.3715
288.13 K, 448.02 kPa, x1 = 0.7822 | 18.5148
288.13 K, 514.46 kPa, x1 = 0.5401 | 17.9692
288.13 K, 613.19 kPa, x1 = 0.5401 | 21.9339
288.14 K, 209.2 kPa, x1 = 0.5401 | 6.8504
288.14 K, 232.81 kPa, x1 = 0.6201 | 8.1461
288.14 K, 332.05 kPa, x1 = 0.6201 | 11.8593
288.15 K, 122.39 kPa, x1 = 0.6201 | 4.191
288.15 K, 553.06 kPa, x1 = 0.6201 | 20.7897
288.43 K, 753.42 kPa, x1 = 0.2391 | 21.238
288.45 K, 459.95 kPa, x1 = 0.2391 | 12.1079
288.45 K, 680.21 kPa, x1 = 0.2391 | 18.823
288.46 K, 121.21 kPa, x1 = 0.2391 | 2.9907
288.46 K, 302.44 kPa, x1 = 0.2391 | 7.7138
288.46 K, 384.07 kPa, x1 = 0.2391 | 9.9536
288.46 K, 571.46 kPa, x1 = 0.2391 | 15.4131
288.47 K, 209.6 kPa, x1 = 0.2391 | 5.253
293.14 K, 105.81 kPa, x1 = 0.7822 | 3.9639
293.15 K, 425.23 kPa, x1 = 0.7822 | 17.0517
293.15 K, 454.02 kPa, x1 = 0.5401 | 15.2811
293.15 K, 540.93 kPa, x1 = 0.7822 | 22.3179
293.15 K, 558.53 kPa, x1 = 0.5401 | 19.2207
293.15 K, 637.77 kPa, x1 = 0.7822 | 27.0005
293.15 K, 758.84 kPa, x1 = 0.5401 | 27.3827
293.15 K, 856.96 kPa, x1 = 0.5401 | 31.7378
293.16 K, 103.22 kPa, x1 = 0.5401 | 3.2534
293.16 K, 213.45 kPa, x1 = 0.7822 | 8.1673
293.16 K, 216.96 kPa, x1 = 0.5401 | 6.9744
293.16 K, 311.55 kPa, x1 = 0.7822 | 12.1753
293.16 K, 328.59 kPa, x1 = 0.5401 | 10.787
293.16 K, 662.93 kPa, x1 = 0.5401 | 23.3629
293.17 K, 427.29 kPa, x1 = 0.6201 | 15.2346
293.17 K, 611.78 kPa, x1 = 0.6201 | 22.7331
293.18 K, 124.6 kPa, x1 = 0.6201 | 4.1917
293.18 K, 229.76 kPa, x1 = 0.6201 | 7.8762
293.18 K, 328.76 kPa, x1 = 0.6201 | 11.4874
293.18 K, 525.37 kPa, x1 = 0.6201 | 19.1338
293.19 K, 728.09 kPa, x1 = 0.6201 | 27.8461
